Experimental data: PubChem BioAssay (NCI)
“And” between values parts separate entries of the source, which are not always exact repeats. Identical values can stand only once.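 Tested at 5 concentrations; 48 h exposure; 96-well plates; endpoints linearly interpolated, else capped at highest concentration. GI50 marks 50% less growth. TGI denotes the concentration required for complete inhibition of growth.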

Legend:
Experiment in all cases: inhibition of tumour cell growth, NCI panel, 48 h
RPMI-8226 leukemia = tested on: RPMI-8226 leukemia
NCI-H226 lung = tested on: NCI-H226 lung
NCI/ADR-RES ovarian = tested on: NCI/ADR-RES ovarian
COLO 205 colon = tested on: COLO 205 colon
MDA-MB-435 = tested on: MDA-MB-435
NCI-H522 lung = tested on: NCI-H522 lung
HCT-116 colon = tested on: HCT-116 colon
K-562 leukemia = tested on: K-562 leukemia
U251 CNS = tested on: U251 CNS

Compound	TGI (RPMI-8226 leukemia)	TGI (NCI-H226 lung)	TGI (NCI/ADR-RES ovarian)	TGI (COLO 205 colon)	TGI (MDA-MB-435)	TGI (NCI-H522 lung)	TGI (HCT-116 colon)	TGI (K-562 leukemia)	TGI (U251 CNS)	GI50 (RPMI-8226 leukemia)	GI50 (NCI-H226 lung)	GI50 (NCI/ADR-RES ovarian)	GI50 (COLO 205 colon)	GI50 (MDA-MB-435)	GI50 (NCI-H522 lung)	GI50 (HCT-116 colon)	GI50 (K-562 leukemia)	GI50 (U251 CNS)
COc1ccc(C(=O)c2cc(OC)c(OC)c(OC)c2)cc1	76.3 µM	37.9 µM	> 100 µM	3.69 µM	0.0424 µM	0.238 µM	> 25.8 µM	> 100 µM	9.74 µM									
Cc1ccc([N+](=O)[O-])cc1NC(=O)Nc1cccc(F)c1	20.7 µM	> 100 µM	> 100 µM	> 100 µM	> 100 µM	15.7 µM	> 100 µM	71.4 µM	18.4 µM	2.82 µM	7.54 µM	3.37 µM	8.85 µM	3.8 µM	2.64 µM	3.53 µM	2.63 µM	3.82 µM
COc1ccc(-c2cc(-c3cc(Cl)ccc3Cl)nc3n[nH]c(N)c23)cc1	70.2 µM	> 100 µM	> 100 µM	> 100 µM	6.94 µM	49.3 µM	29.3 µM	> 100 µM	> 100 µM	22.8 µM	63.4 µM	18 µM	34.6 µM	2.65 µM	17.3 µM	6.32 µM	15.8 µM	8.95 µM
NCCNc1c2c(c(NCCN)c3c(CO)c[nH]c13)C(=O)c1ccccc1C2=O	> 100 µM	91.6 µM	> 100 µM	> 100 µM	> 100 µM	> 100 µM	> 100 µM	> 100 µM	> 100 µM	31.3 µM	17.9 µM	> 100 µM	8.38 µM	28.7 µM	8.13 µM	7.11 µM	9.54 µM	2.53 µM
COc1ccc(C2CC(c3cc(OC)c(OC)c(OC)c3)=NO2)cc1OCCCCOc1cc2c(cc1OC)C(=O)N1CCC[C@H]1C=N2 (some centres not stated)	4.31 µM	3.44 µM	37.5 µM	4.04 µM	> 100 µM	2.28 µM	3.89 µM	6.74 µM	3.61 µM	1.43 µM	1.67 µM	6.95 µM	1.96 µM	3.54 µM	0.61 µM	1.7 µM	1.26 µM	1.73 µM
CCN1CCN(Cc2ccc(-c3cc4c(N[C@H](C)c5ccccc5)ncnc4[nH]3)cc2)CC1	13.4 µM and 6.94 µM	24.7 µM and > 10 µM	29.9 µM and > 10 µM	3.6 µM and 3.52 µM	4.63 µM and 8.4 µM	2.23 µM and > 10 µM	14.4 µM and > 10 µM	12.4 µM and > 10 µM	5.06 µM and > 10 µM	3.54 µM and 2.13 µM	3.03 µM and 7.73 µM	4.69 µM and 4.78 µM	1.9 µM and 1.73 µM	1.95 µM and 2.74 µM	0.154 µM and 0.462 µM	2.8 µM and 2.87 µM	0.49 µM and 0.626 µM	1.84 µM and 2.85 µM
CCNC(=O)[C@@H]1CCCN2C(=O)CC[C@H](NC(=O)[C@H](Cc3ccc(OP(=O)(O)O)cc3)NC(C)=O)C(=O)N12	> 25 µM	> 25 µM	> 25 µM	> 25 µM	> 25 µM	> 25 µM	> 25 µM	> 25 µM	> 25 µM	> 25 µM	> 25 µM	> 25 µM	> 25 µM	> 25 µM	> 25 µM	> 25 µM	> 25 µM	> 25 µM
